Laboratory results: paper PMC4979471 (Cell Death Discovery, 2015)
Entries after “also recorded” stand apart in the source; their conditions may differ. Where two headings read alike, the source gives them in different places. One block for each compound: values may come before it.

Columns and labels:
[1] = test system: human monocytic U937 cells; test: TNF+zVAD-induced necroptosis, CellTiter-Glo; assay type: cell-based; conditions: U-937, U937, overnight, read-out: IC50 blocking necroptosis
Description: (§1) Mouse fibrosarcoma L929 cells (ATCC# CCL-1) and human monocytic U937 cells (ATCC# CRL-1593.2) were cultured in RPMI media supplemented with 10% heat-inactivated FBS, 100 U/ml penicillin and […] streptomycin. BMDM were prepared from C57BL/6 mice by differentiation with 10 ng/ml M-CSF (R&D Systems) for 7 days and cultured in DMEM medium supplemented with 10% heat-inactivated FBS, 100 U/ml penicillin, 100 μg/ml streptomycin and 0.25 μg/ml amphotericin. Primary human neutrophils were isolated from human blood following the standard method comprised of sequential sedimentation in dextran, density centrifugation in Ficoll–Hypaque and lysis of contaminating red blood cells.
(§2) […] To evaluate the effect of RIP1 inhibitors, cells were pretreated with compound (dose–response) for 30 min. Induced cell death was evaluated 19–21 h later by measuring cellular ATP levels using CellTiter-Glo Luminescent Cell Viability assay (Promega, Fitchburg, WI, USA). To induce necroptosis in neutrophils, freshly isolated human neutrophils were stimulated with TNF (10 ng/ml), QVD-Oph (50 μM) and SMAC mimetic (100 nM). Induced cell death was evaluated as above.

[2] = test system: mouse fibrosarcoma L929 cells; test: TNF+zVAD-induced necroptosis, CellTiter-Glo; assay type: cell-based; conditions: overnight, read-out: IC50 blocking necroptosis
Description: as §1, §2

C57BL/6 mice = test: TNF+zVAD-induced shock model (temperature loss); assay type: in vivo, mouse; conditions: 15 min before TNF+zVAD
Description: Temperature was monitored over the course of 3 h by rectal probe.

recombinant human IDO = molecular target: T1, recombinant human IDO (Homo sapiens, UniProt P14902); test: IDO enzymatic assay; assay type: biochemical; conditions: in vitro enzymatic assay
T1 construct: purchased R&D Systems (Minneapolis, MN, USA)
Description: IDO activity was determined as described by Takahashi et al.[25] using recombinant human IDO purchased from R&D Systems (Minneapolis, MN, USA). The yellow pigment derived from kynurenine was measured at 490 nm using the Spectramax microplate reader (Molecular Devices).

RIP1 kinase = molecular target: T2, RIP1 kinase (Homo sapiens, UniProt Q13546); test: ADP-Glo kinase assay; assay type: biochemical
T2 construct: 10 nM GST-RIPK1 (1–375) and 50 μM ATP; made in house
Description: Compound potency against RIP1 kinase activity was determined using an ADP-Glo luminescence assay, which measures the conversion of ATP to ADP as previously described.[18] In brief, the primary reaction consisted of 10 nM GST-RIPK1 (1–375) and 50 μM ATP in 50 mM HEPES pH 7.5, 50 mM NaCl, 30 mM MgCl2, 1 mM DTT, 0.5 mg/ml BSA, and 0.02% CHAPS. Five microliter of enzyme and 5 μl of ATP were added to the plate at twice the final assay concentration and incubated at room temperature for 4 h. The luminescence was measured on a plate reader. Test compound inhibition was expressed as percent inhibition of internal assay controls.

[3] = test system: indoleamine-2,3-dioxygenase (IDO); conditions: cited from earlier work
[4] = cited from earlier work
[5] = Pharmacokinetic profile after i.p. administration; assay type: in vivo, C57BL/6 mice; conditions: 10 mg/kg i.p., mice
Description: Briefly, pharmacokinetic studies were conducted using n=3 animals per group for each compound. […] Blood samples were obtained at various time points following intraperitoneal injection and diluted 1 : 1 with water prior to storage at −80 °C.
Prior to bioanalysis, samples were thawed and each analyte was isolated using a method based on protein precipitation. The resulting supernatant was injected into an LC/MS/MS system optimized for detection of the compound of interest. Data were reported as quantitative drug concentrations as determined by standard calibration curve analysis. Using these optimized conditions, the typical lower limit of quantitation achieved was 1.00 ng/ml for both compounds.

[6] = molecular target: T3, RIP1 (ATP-binding pocket) (Homo sapiens, UniProt Q13546); test: Fluorescent polarization (FP) binding assay
T3 construct: GST-RipK1 (1–375) was purified; made in house
T3 sequence (Q13546 1-375): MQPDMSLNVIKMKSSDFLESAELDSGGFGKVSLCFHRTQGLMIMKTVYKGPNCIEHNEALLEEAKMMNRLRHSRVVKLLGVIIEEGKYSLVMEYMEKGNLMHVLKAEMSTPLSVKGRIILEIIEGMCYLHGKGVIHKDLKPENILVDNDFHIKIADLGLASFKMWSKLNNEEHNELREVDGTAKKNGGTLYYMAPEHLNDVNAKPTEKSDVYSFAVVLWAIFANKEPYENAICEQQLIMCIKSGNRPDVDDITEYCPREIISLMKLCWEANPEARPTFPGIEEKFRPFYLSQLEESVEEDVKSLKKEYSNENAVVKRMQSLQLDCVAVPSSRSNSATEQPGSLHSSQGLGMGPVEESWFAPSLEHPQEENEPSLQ
Description: A FP-based binding assay was developed to quantitate interaction of novel test compounds at the ATP-binding pocket of RIP1, by competition with a fluorescently labeled ATP-competitive ligand, as previously described.[18] In brief, GST-RipK1 (1–375) was purified and was used at a final assay concentration of 10 nM.

T1 sequence (P14902 whole entry): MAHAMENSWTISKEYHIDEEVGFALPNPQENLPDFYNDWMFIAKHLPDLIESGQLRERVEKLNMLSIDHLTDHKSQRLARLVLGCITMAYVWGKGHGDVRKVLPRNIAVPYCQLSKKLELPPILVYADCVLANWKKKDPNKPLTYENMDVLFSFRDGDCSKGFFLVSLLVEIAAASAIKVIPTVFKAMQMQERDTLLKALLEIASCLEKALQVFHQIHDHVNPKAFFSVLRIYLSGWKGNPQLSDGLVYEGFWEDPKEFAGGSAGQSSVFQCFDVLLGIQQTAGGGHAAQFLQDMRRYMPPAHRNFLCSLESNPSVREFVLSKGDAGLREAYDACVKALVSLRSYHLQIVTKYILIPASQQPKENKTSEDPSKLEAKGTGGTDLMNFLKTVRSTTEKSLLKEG

effect on IDO activity (recombinant human IDO): no effect
IC50 (RIP1 kinase; read-out: IC50 blocking RIP1 kinase activity): 1 µM
exposure compared with GSK′963 [5]: ~ 10 fold
IC50 [6]: 2 µM
drop off in potency relative to GSK′963 in the FP binding assay [6]: ~ 70 fold
Compound: CN1C(=O)C(Cc2c[nH]c3ccccc23)NC1=S (stereo not shown) [Nec-1, Necrostatin-1, reference compound]
IC50 [1]: 2 µM
IC50 [2]: 1 µM
protection from TNF+zVAD-induced temperature loss (C57BL/6 mice; 0.2 mg/kg i.p.): no effect
protection from TNF+zVAD-induced temperature loss (C57BL/6 mice; 2 mg/kg i.p.): minimal level of protection; also recorded: no significant protection
IDO inhibition ([3]; ref 22): known to inhibit
IDO inhibition ([3]; ref 25): potent inhibitor
in vivo half-life ([4]; ref 23): short
metabolic stability ([4]; ref 23): quite limited

Compound: CC1=CC(=O)c2ccccc2C1=O [menadione, reference compound]
effect on IDO activity (recombinant human IDO): inhibited enzyme activity with the expected potency

activity in blocking RIP1 kinase activity (RIP1 kinase): inactive
activity in the FP binding assay [6]: no activity
Compound: CC(C)(C)C(=O)N1N=CC[C@@H]1c1ccccc1 [GSK′962]
protection from TNF+zVAD-induced temperature loss (C57BL/6 mice; 20 mg/kg i.p.): no effect

Compound: CN1C(=O)NC(Cc2c[nH]c3c(Cl)cccc23)C1=O (stereo not shown) [Nec-1s, 7-Cl-O-Nec-1]
IDO activity ([3]; ref 24): lacks IDO activity
pharmacokinetic properties ([4]; ref 24): improved pharmacokinetic properties
